Legend:
fathead minnow = tested on: fathead minnow; design: method as in Panter et al. (2004); conditions: 21-day exposure; ref Panter et al. (2004); cited from earlier work
[1] = tested on: Japanese medaka (Oryzias latipes); assay: Fish short-term reproduction assay (FSTRA, OECD TG229), 21-day flow-through exposure; conditions: for Fertility rate (%) / Mortality (%) Female / Mortality (%) Male / Number of fertilized eggs / Number of total eggs / SSC Female / SSC Male / VTG (ng/mg of liver) Female / VTG (ng/mg of liver) Male: 21 days; for GSI Female / GSI Male / HSI Female / HSI Male / Length Female / Length Male / Weight Female / Weight Male: at completion of exposure
Experimental: The experimental studies on the FSTRA for the 16 chemicals were conducted in two laboratories in Japan, the National Institute for Environmental Studies (NIES, Lab‐1) and the Institute of Environmental Ecology, IDEA Consultants Inc. (Lab‐2), in accordance with OECD TG229 (OECD, [2012a]) (Table 1).
The NIES‐R strain of Japanese medaka (O. latipes), one of the orange‐red varieties, was used in all the 16 chemical studies. For the studies, healthy and mature male and female medakas at 16 ± 2 weeks old were selected from a single‐stock population, which were bred within the test facilities. The test fish were maintained in conditions similar to the assay for at least 7 days, and spawning status was checked during the acclimation period. On the day the chemical exposure commenced, to ensure balanced distribution of test fish between the treatment groups for the reproductive status of the fish, the replicate vessels (fish tanks), with each containing three male and female medaka, were distributed to each treatment and control group, for example, by a randomized block design based on the number of fertilized eggs laid in the last 5–7 days during the acclimation, in each assay.
The water solubility of the test chemical was also taken into consideration when deciding the highest test concentration. To set the lower concentrations, a spacing factor ranging between two and five was used. All assays included a dilution water control (DWC).
Test solutions at the selected concentrations were prepared by diluting a stock solution, which was prepared by an adequate method depending on the physicochemical properties of the test chemicals, for example, by simply mixing the test chemical in dilution water by stirring and/or sonicating for an appropriate time or by using a solid–liquid saturator. In the two laboratories, flow‐through exposure systems, in which a series of test solutions at the target concentrations can be continuously prepared and delivered to test vessels at controlled flow rates (Haselman et al., [2016]; Watanabe et al., [2017]), were used for the exposure experiments.
In the FSTRA, three mature adult males and females in a test vessel were exposed together to the test chemicals in flow‐through condition for 3 weeks. In all the assays, each treatment group, including the DWC group, contained four replicate tanks. During the exposure period, the fish were fed a sufficient amount of live brine shrimp nauplii (newly hatched Artemia sp.) for daily spawning ad libitum. Fecal material in the tanks was appropriately removed by siphoning after feeding. Water temperature of test solutions was recorded for at least one vessel in each treatment and control group every day and for all vessels at least once a week. Furthermore, dissolved oxygen and pH of test solutions were measured for all test vessels at least once a week. Mortality and abnormal behavior and appearance in the fish exposed to test chemicals were daily observed, and any fish that died were removed from the tank as soon as possible. To assess the reproductive status, all eggs females spawned were collected every day. At the completion of the chemical exposure, surviving fish in each tank were sampled.
The eggs females released on the bottom of the tank were collected by siphoning, and the egg clutches still on female abdomen were carefully picked from the body of the females captured using a small net. All the eggs collected were microscopically observed and separately counted for fertilized and unfertilized.

medaka ARβ (mARβ) = medaka ARβ (mARβ) (Oryzias latipes, UniProt D1MV73); assay: Medaka ARβ reporter gene assay (RGA), antagonist assay with 50 nM 11KT, HepG2 cells; format: cell-based, Japanese medaka (Oryzias latipes); conditions: 50 nM 11KT-induced mARβ activity
Sequence of medaka ARβ (mARβ) (D1MV73 entry or part of it): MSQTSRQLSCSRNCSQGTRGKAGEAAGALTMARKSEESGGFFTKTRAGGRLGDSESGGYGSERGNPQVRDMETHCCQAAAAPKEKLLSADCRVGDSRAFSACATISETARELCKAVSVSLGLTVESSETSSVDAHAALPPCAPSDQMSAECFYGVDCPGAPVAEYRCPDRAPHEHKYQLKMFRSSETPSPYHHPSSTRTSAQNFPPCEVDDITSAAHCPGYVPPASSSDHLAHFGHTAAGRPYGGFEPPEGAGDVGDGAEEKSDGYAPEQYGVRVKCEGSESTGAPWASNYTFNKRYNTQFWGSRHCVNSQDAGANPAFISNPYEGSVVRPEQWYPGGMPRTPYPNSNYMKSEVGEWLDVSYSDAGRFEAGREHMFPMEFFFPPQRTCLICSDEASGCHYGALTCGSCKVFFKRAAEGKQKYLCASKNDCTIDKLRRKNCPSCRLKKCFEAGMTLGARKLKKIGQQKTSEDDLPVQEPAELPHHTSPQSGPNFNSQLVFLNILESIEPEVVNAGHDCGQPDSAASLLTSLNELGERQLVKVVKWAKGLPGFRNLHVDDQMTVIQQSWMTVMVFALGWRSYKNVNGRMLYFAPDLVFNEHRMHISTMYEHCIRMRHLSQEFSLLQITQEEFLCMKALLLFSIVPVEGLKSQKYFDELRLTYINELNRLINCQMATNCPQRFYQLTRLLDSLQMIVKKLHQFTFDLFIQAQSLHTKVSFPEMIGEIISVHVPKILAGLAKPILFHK
Experimental: To support interpretation of the biological effects observed in the FSTRA studies, in vitro RGAs using medaka Esr1 (mEsr1) and medaka ARβ (mARβ) were performed for the 16 test chemicals. In the present study, Esr1 and ARβ, which are ancestral subtypes among Esrs and ARs in Japanese medaka, were selected based on the phylogenetical analyses of Esr and AR with each receptor RGAs (Ogino et al., [2016], [2018]; Tohyama et al., [2015]).
The mARβ RGA in which the agonist and the antagonist assays were performed as same as the mEsr1 RGA was carried out according to the methods previously reported by Lange et al. ([2015]). For the assays, human liver cancer cell line, HepG2, was used as the host cells, and mARβ/pcDNA3.1, MMTV‐Luc, and pRL‐TK‐Rlu were used as mARβ expression vector, reporter vector, and internal control vector, respectively. Other materials and methods, for example, operating procedure, reagents, and incubation conditions, were almost the same as the mEsr1 RGA previously described beside that 11KT (Sigma‐Aldrich, purity 99.0%), a main AR ligand in fish, was competitively spiked at 50 nM into the test medium with test chemicals in antagonist assay. In the agonist and the antagonist assays, 11KT and 2‐hydroxyflutamide (2HFLT; Sigma‐Aldrich, purity 98.5%) were used as positive controls, respectively.
Effect concentrations, that is, EC50 (a half maximal effective concentration) in the agonist assay and IC50 (a half maximal inhibitory concentration) in the antagonist assay, were estimated by nonlinear curve fitting (e.g., three parameters logistic regression curve) using GraphPad Prism (GraphPad Software Inc., La Jolla, CA, USA).

## CC(C)C(=O)Nc1ccc([N+](=O)[O-])c(C(F)(F)F)c1 [FLT, Flutamide]
Fathead minnow
  concentration that significantly reduced the number of nuptial tubercles in males: 938.6 µg/L
[1]; measured conc. 119 μg/L
  Fertility rate (%): 94%
  Mortality (%) Female: 0%
  Mortality (%) Male: 0%
  Number of fertilized eggs: 25
  Number of total eggs: 26 ± 2.3 /female/day
  SSC Female: 0 ± 0
  SSC Male: 86 ± 18
  VTG (ng/mg of liver) Female: 908 ± 255 ng/mg of liver
  VTG (ng/mg of liver) Male: 47.9 ± 41.8 ng/mg of liver
  GSI Female: 10.1%
  GSI Male: 1.10%
  HSI Female: 4.2%
  HSI Male: 2.0%
  Length Female: 34.2 mm
  Length Male: 35.6 mm
  Weight Female: 426 mg
  Weight Male: 445 mg
[1]; measured conc. 248 μg/L
  Fertility rate (%): 94%
  Mortality (%) Female: 0%
  Mortality (%) Male: 0%
  Number of fertilized eggs: 26
  Number of total eggs: 28 ± 3.1 /female/day
  SSC Female: 0 ± 0
  SSC Male: 82 ± 15
  VTG (ng/mg of liver) Female: 970 ± 200 ng/mg of liver
  VTG (ng/mg of liver) Male: 35.8 ± 41.5 ng/mg of liver
  GSI Female: 10.9%
  GSI Male: 1.10%
  HSI Female: 4.6%
  HSI Male: 2.1%
  Length Female: 33.7 mm
  Length Male: 35.0 mm
  Weight Female: 428 mg
  Weight Male: 394 mg
[1]; measured conc. 497 μg/L
  Fertility rate (%): 96%
  Mortality (%) Female: 0%
  Mortality (%) Male: 0%
  Number of fertilized eggs: 27
  Number of total eggs: 28 ± 3.0 /female/day
  SSC Female: 0 ± 0
  SSC Male: 82 ± 16
  VTG (ng/mg of liver) Female: 812 ± 159 ng/mg of liver
  VTG (ng/mg of liver) Male: 38.7 ± 44.8 ng/mg of liver
  GSI Female: 10.3%
  GSI Male: 1.20%
  HSI Female: 4.8%
  HSI Male: 1.9%
  Length Female: 34.3 mm
  Length Male: 35.9 mm
  Weight Female: 470 mg
  Weight Male: 429 mg
[1]; measured conc. 925 μg/L
  Fertility rate (%): 93%
  Mortality (%) Female: 0%
  Mortality (%) Male: 0%
  Number of fertilized eggs: 27
  Number of total eggs: 29 ± 3.1 /female/day
  SSC Female: 0 ± 0
  SSC Male: 93 ± 16
  VTG (ng/mg of liver) Female: 830 ± 131 ng/mg of liver
  VTG (ng/mg of liver) Male: 50.8 ± 53.8 ng/mg of liver
  GSI Female: 11.5%
  GSI Male: 1.10%
  HSI Female: 4.5%
  HSI Male: 2.0%
  Length Female: 34.2 mm
  Length Male: 35.8 mm
  Weight Female: 453 mg
  Weight Male: 416 mg
[1]; within the test concentrations, 21-day exposure
  effect on fecundity (number of total eggs), in words: No effect
Medaka ARβ (mARβ)
  mARβ antagonist activity (in words): inhibited

From paper PMC8359193, “Summary of reference chemicals evaluated by the fish short‐term reproduction assay, OECD TG229, using Japanese Medaka, Oryzias latipes” (Journal of Applied Toxicology, 2021)
